Converted amounts (≈) assume the structure as drawn.
System: Staphylococcus aureus Smith
Experiment: MIC assay, modified agar dilution (CLSI), S. aureus Smith
Assay type: cell-based
Conditions: agar dilution, 35° C., 16-20 hr, lowest concentration that completely inhibited growth; for MIC: Staphylococcus aureus, read-out: S_aureus_Smith_WT_MIC
In short: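 Strains were spotted at about 1×10^4 CFU onto compound-containing Mueller Hinton agar (two-fold series, 128-0.001 μg/mL), horse blood 5% added for pneumococcus and enterococcus. MIC read after 16-20 hr at 35 °C, following a modified CLSI agar dilution method.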

SMILES	MIC [µg/mL]	S_aureus_Smith_WT_MIC [µg/mL]
COc1cc(C)c2ncc(F)c(CCC34CCC(NCc5ccc6c(n5)NC(=O)CO6)(CC3)CO4)c2c1 [Example 139, 6-((1-(2-(3-Fluoro-6-methoxy-8-methylquinolin-4-yl)ethyl)-2-oxabicyclo[2.2.2]octan-4-ylamino)methyl)-2H-pyrido[3,2-b][1,4]oxazin-3(4H)-one]	0.063 (≈ 0.124 µM)	–
COc1cc(C)c2ncc(F)c(CC(O)C34CCC(NCc5ccc6c(n5)NC(=O)CO6)(CC3)CO4)c2c1 (centres unmarked) [Example 140, 6-[({1-[2-(3-Fluoro-6-methoxy-8-methylquinolin-4-yl)-1-hydroxyethyl]-2-oxabicyclo[2.2.2]oct-4-yl}amino)methyl]-2H-pyrido[3,2-b][1,4]oxazin-3(4H)-one]	0.063 (≈ 0.121 µM)	–
COc1cc2c(CCC34CCC(NCc5ccc6c(n5)NC(=O)CO6)(CC3)CO4)c(F)cnc2cc1F [Example 141, 6-[({1-[2-(3,7-Difluoro-6-methoxyquinolin-4-yl)ethyl]-2-oxabicyclo[2.2.2]oct-4-yl}amino)methyl]-2H-pyrido[3,2-b][1,4]oxazin-3(4H)-one]	0.063 (≈ 0.123 µM)	–
COc1ccc2ncc(F)c(CCC34CCC(NCc5ncc6c(n5)NC(=O)CO6)(CC3)CO4)c2n1 [Example 142, 2-((1-(2-(3-Fluoro-6-methoxy-1,5-naphthyridin-4-yl)ethyl)-2-oxabicyclo[2.2.2]octan-4-ylamino)methyl)-6H-pyrimido[5,4-b][1,4]oxazin-7(8H)-one]	0.031 (≈ 0.0627 µM)	–
COc1ccc2ncc(F)c(CC(O)C34CCC(NCc5ncc6c(n5)NC(=O)CO6)(CC3)CO4)c2n1 (centres unmarked) [Example 143, 2-((1-(2-(3-Fluoro-6-methoxy-1,5-naphthyridin-4-yl)-1-hydroxyethyl)-2-oxabicyclo[2.2.2]octan-4-ylamino)methyl)-6H-pyrimido[5,4-b][1,4]oxazin-7(8H)-one]	0.031 (≈ 0.0607 µM)	–
COc1ccc2ncc(F)c(CCC34CCC(NCc5ncc6c(n5)OCCO6)(CC3)CO4)c2n1 [Example 144, N-((6,7-Dihydro-[1,4]dioxino[2,3-d]pyrimidin-2-yl)methyl)-1-(2-(3-fluoro-6-methoxy-1,5-naphthyridin-4-yl)ethyl)-2-oxabicyclo[2.2.2]octan-4-amine]	0.125 (≈ 0.26 µM)	–
COc1ccc2ncc(F)c(C[C@@H](O)C34CCC(NCc5ncc6c(n5)OCCO6)(CC3)CO4)c2n1 [Example 145, (R)-1-(4-((6,7-Dihydro-[1,4]dioxino[2,3-d]pyrimidin-2-yl)methylamino)-2-oxabicyclo[2.2.2]octan-1-yl)-2-(3-fluoro-6-methoxy-1,5-naphthyridin-4-yl)ethanol]	0.25 (≈ 0.502 µM)	–
COc1ccc2ncc(F)c(CCC34CCC(NCc5ccc6c(n5)OCCO6)(CC3)CO4)c2n1 [Example 146, N-((2,3-Dihydro-[1,4]dioxino[2,3-b]pyridin-6-yl)methyl)-1-(2-(3-fluoro-6-methoxy-1,5-naphthyridin-4-yl)ethyl)-2-oxabicyclo[2.2.2]octan-4-amine]	0.125 (≈ 0.26 µM)	–
COc1ccc2ncc(F)c(CC(O)C34CCC(NCc5ccc6c(n5)OCCO6)(CC3)CO4)c2n1 (centres unmarked) [Example 147, 1-(4-((2,3-Dihydro-[1,4]dioxino[2,3-b]pyridin-6-yl)methylamino)-2-oxabicyclo[2.2.2]octan-1-yl)-2-(3-fluoro-6-methoxy-1,5-naphthyridin-4-yl)ethanol]	0.125 (≈ 0.252 µM)	–
COc1ccc2ncc(F)c(CCC34CCC(NCc5cc6c(cn5)OCC(=O)N6)(CC3)CO4)c2n1 [Example 148, 7-((1-(2-(3-Fluoro-6-methoxy-1,5-naphthyridin-4-yl)ethyl)-2-oxabicyclo[2.2.2]octan-4-ylamino)methyl)-1H-pyrido[3,4-b][1,4]oxazin-2(3H)-one]	–	0.0310
COc1ccc2ncc(F)c(CC(O)C34CCC(NCc5cc6c(cn5)OCC(=O)N6)(CC3)CO4)c2n1 (centres unmarked) [Example 149, 7-((1-(2-(3-Fluoro-6-methoxy-1,5-naphthyridin-4-yl)-1-hydroxyethyl)-2-oxabicyclo[2.2.2]octan-4-ylamino)methyl)-1H-pyrido[3,4-b][1,4]oxazin-2(3H)-one]	0.063 (≈ 0.124 µM)	–
COc1cc(OC)c2nccc(CCC34CCC(NCc5ccc6c(n5)NC(=O)CO6)(CC3)CO4)c2n1 [Example 150, 6-((1-(2-(6,8-Dimethoxy-1,5-naphthyridin-4-yl)ethyl)-2-oxabicyclo[2.2.2]octan-4-ylamino)methyl)-2H-pyrido[3,2-b][1,4]oxazin-3(4H)-one]	0.5 (≈ 0.989 µM)	–
COc1ccc2ccc(F)c(CCC34CCC(NCc5ccc6c(n5)NC(=O)CO6)(CC3)CO4)c2n1 [Example 153, 6-((1-(2-(7-Fluoro-2-methoxyquinolin-8-yl)ethyl)-2-oxabicyclo[2.2.2]octan-4-ylamino)methyl)-2H-pyrido[3,2-b][1,4]oxazin-3(4H)-one]	0.063 (≈ 0.128 µM)	–
CN(C)c1nc2c(CCC34CCC(NCc5ccc6c(n5)NC(=O)CO6)(CC3)CO4)ccnc2cc1F [Example 154, 6-((1-(2-(6-(Dimethylamino)-7-fluoro-1,5-naphthyridin-4-yl)ethyl)-2-oxabicyclo[2.2.2]octan-4-ylamino)methyl)-2H-pyrido[3,2-b][1,4]oxazin-3(4H)-one]	1 (≈ 1.97 µM)	–
COc1ccc2ncc(F)c(CCC34CCC(NCc5ccc6c(n5)NC(=O)CS6)(CC3)CO4)c2n1 [Example 155, 6-((1-(2-(3-Fluoro-6-methoxy-1,5-naphthyridin-4-yl)ethyl)-2-oxabicyclo[2.2.2]octan-4-ylamino)methyl)-2H-pyrido[3,2-b][1,4]thiazin-3(4H)-one]	0.016 (≈ 0.0314 µM)	–
COc1ccc2ncc(F)c(CC(O)C34CCC(NCc5ccc6c(n5)NC(=O)CS6)(CC3)CO4)c2n1 (centres unmarked) [Example 156, 6-((1-(2-(3-Fluoro-6-methoxy-1,5-naphthyridin-4-yl)-1-hydroxyethyl)-2-oxabicyclo[2.2.2]octan-4-ylamino)methyl)-2H-pyrido[3,2-b][1,4]thiazin-3(4H)-one]	0.063 (≈ 0.12 µM)	–
COc1ccc2ncc(F)c(CC(F)C34CCC(NCc5ccc6c(n5)NC(=O)CO6)(CC3)CO4)c2n1 (centres unmarked) [Example 157a, 6-[({1-[1-Fluoro-2-(3-fluoro-6-methoxy-1,5-naphthyridin-4-yl)ethyl]-2-oxabicyclo[2.2.2]oct-4-yl}amino)methyl]-2H-pyrido[3,2-b][1,4]oxazin-3(4H)-one]	2 (≈ 3.91 µM)	–
O=C1COc2ccc(CNC34CCC(C(O)Cc5c(F)cnc6ccc(OCCCO)nc56)(CC3)OC4)nc2N1 (centres unmarked) [Example 158, 6-{[(1-{2-[3-Fluoro-6-(3-hydroxypropoxy)-1,5-naphthyridin-4-yl]-1-hydroxyethyl}-2-oxabicyclo[2.2.2]oct-4-yl)amino]methyl}-2H-pyrido[3,2-b][1,4]oxazin-3(4H)-one]	0.125 (≈ 0.226 µM)	–
N#Cc1cnc2ccc(=O)n(CC(O)C34CCC(NCc5ccc6c(n5)NC(=O)CO6)(CC3)CO4)c2c1 (centres unmarked) [Example 162, 5-(2-Hydroxy-2-(4-((3-oxo-3,4-dihydro-2H-pyrido[3,2-b][1,4]oxazin-6-yl)methylamino)-2-oxabicyclo[2.2.2]octan-1-yl)ethyl)-6-oxo-5,6-dihydro-1,5-naphthyridine-3-carbonitrile]	2 (≈ 3.98 µM)	–
COc1ccc2ncc(F)c(CCC34CCC(NCc5ccc6c(n5)NS(=O)(=O)CO6)(CC3)CO4)c2n1 [Example 163, 7-((1-(2-(3-Fluoro-6-methoxy-1,5-naphthyridin-4-yl)ethyl)-2-oxabicyclo[2.2.2]octan-4-ylamino)methyl)-1H-pyrido[2,3-e][1,3,4]oxathiazine-2,2-dioxide]	4 (≈ 7.55 µM)	–

— patent publication US20140243302A1, “BRIDGED BICYCLIC COMPOUNDS FOR THE TREATMENT OF BACTERIAL INFECTIONS” (priority 2011, published 2014)
